Laboratory results reported in patent US20230065953A1, “NOVEL HETEROARYL-TRIAZOLE COMPOUNDS AS PESTICIDES” (Bayer Aktiengesellschaft, priority 2019, published 2023).

Legend:
Type in all cases: in vivo
[1] = system: larvae of the southern green stink bug (Nezara viridula); assay: Nezara viridula spray test; conditions: in Hordeum vulgare, 96 h
In short: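 Barley plants sprayed with compound in acetone/dimethylformamide, diluted in water with 1000 ppm alkylarylpolyglycol ether emulsifier, then infested with Nezara viridula larvae. Percent mortality read after 4 days (100% = all killed, 0% = none).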

[2] = system: larvae of the southern green stink bug (Nezara viridula); assay: Nezara viridula spray test (NEZAVI), comparison; conditions: 96 h, 500 g ai/ha, 4 dat, read-out: % Efficacy
Procedure: Nezara viridula—Spray Test (NEZAVI) • Solvent: 78.0 parts by weight of acetone • 1.5 parts by weight of dimethylformamide • Emulsifier: alkylarylpolyglycol ether
(§1) To produce a suitable preparation of active compound, 1 part by weight of active compound is mixed with the stated amount of solvent, and the concentrate is diluted with water, containing an emulsifier concentration of 1000 ppm, to the desired concentration. Further test concentrations are prepared by dilution with emulsifier containing water.
Barley plants (Hordeum vulgare) are sprayed with a test solution containing the desired concentration of the active ingredient and are infested with larvae of the southern green stink bug (Nezara viridula).
After the specified period of time, mortality in % is determined in comparison to the untreated control plant. 100% means all the stink bugs have been killed; 0% means none of the stink bugs have been killed.

[3] = system: larvae of the banded cucumber beetle (Diabrotica balteata); assay: Diabrotica balteata spray test; conditions: 168 h, 100 g/ha (=32 μg/well), wheat seeds, after 7 days, read-out: efficacy (seedling growth)
In short: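 Wheat seeds germinated 1 day on agar were sprayed with compound in acetone/dimethylformamide with alkylarylpolyglycol ether emulsifier, diluted in emulsifier-containing water. Each unit then received 10-20 larvae, and % efficacy was scored after 7 days.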

[4] = system: fall armyworm larvae (Spodoptera frugiperda); assay: Spodoptera frugiperda spray test (SPODFR, maize leaf sections), comparison; conditions: 168 h, 7 dat, read-out: % Efficacy
Procedure: Spodoptera fruaiperda—Spray Test (SPODFR) • Solvent: 78.0 parts by weight acetone • 1.5 parts by weight dimethylformamide • Emulsifier: alkylarylpolyglycol ether
as §1, with “solvents” for “solvent,”, “and” for “and the concentrate”
Maize (Zea mays) leaf sections are sprayed with a preparation of the active ingredient of the desired concentration. Once dry, the leaf sections are infested with fall armyworm larvae (Spodoptera frugiperda).
After the specified period of time, mortality in % is determined in comparison to the untreated control plant. 100% means all caterpillars have been killed and 0% means none of the caterpillars have been killed.

[5] = system: fall armyworm larvae (Spodoptera frugiperda); assay: Spodoptera frugiperda spray test (maize leaf sections); conditions: 168 h
In short: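 Maize leaf sections sprayed with compound in acetone/dimethylformamide, diluted in water with 1000 ppm alkylarylpolyglycol ether emulsifier. Dried sections infested with fall armyworm larvae. Mortality (%) scored after 7 days; 100% = all caterpillars killed.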

[6] = system: caterpillars of the fall army worm (Spodoptera frugiperda); assay: Spodoptera frugiperda spray test (SPODFR, cotton leaves), comparison; conditions: 168 h, 7 dat, read-out: % Efficacy
Procedure: Spodoptera fruaiperda—Spray Test (SPODFR) • Solvent: 14 parts by weight of dimethylformamide • Emulsifier: alkylaryl polyglycol ether
as §1, with “solvent” for “solvent,”, “and” for “and the concentrate”, “water. Ammonium salt and/or penetration enhancer in a dosage of 1000 ppm are added to the desired concentration if necessary.” for “water.”
(§2) Cotton leaves (Gossypium hirsutum) are treated by being sprayed with the preparation of the active compound of the desired concentration and are infested with caterpillars of the fall army worm (Spodoptera frugiperda).
After the specified period of time mortality in % is determined. 100% means all the caterpillars have been killed and 0% means none of the caterpillars have been killed.

[7] = system: larvae of the diamondback moth (Plutella xylostella); assay: Plutella xylostella spray test (PLUTMA), comparison; conditions: 168 h, 7 dat, read-out: % Efficacy
Procedure: Plutella xylostella—spray test (PLUTMA) • Solvent: 14 parts by weight of dimethylformamide • Emulsifier: alkylaryl polyglycol ether
as §1, with “solvent” for “solvent,”, “and” for “and the concentrate”, “water. Ammonium salt and/or penetration enhancer in a dosage of 1000 ppm are added to the desired concentration if necessary.” for “water.”
Cabbage leaves (Brassica oleracea) are treated by being sprayed with the preparation of the active compound of the desired concentration and are infested with larvae of the diamondback moth (Plutella xylostella).
After the specified period of time, mortality in % is determined. 100% means all the caterpillars have been killed and 0% means none of the caterpillars have been killed.

[8] = system: caterpillars of the fall army worm (Spodoptera frugiperda); assay: Spodoptera frugiperda spray test (cotton leaves); conditions: 168 h, after 7 days
Procedure: Spodoptera frugiperda—spray test • Solvent: 14 parts by weight of dimethylformamide • Emulsifier: alkylaryl polyglycol ether
as §1, with “solvent” for “solvent,”, “and” for “and the concentrate”, “water. Ammonium salt and/or penetration enhancer in a dosage of 1000 ppm are added to the desired concentration if necessary.” for “water.”
as §2
After 7 days mortality in % is determined. 100% means all the caterpillars have been killed and 0% means none of the caterpillars have been killed.

[9] = system: adult cat fleas (Ctenocephalides felis); assay: Ctenocephalides felis in-vitro contact test, adult cat flea; conditions: 5 μg/cm^2 (=500 g/ha), after 48 hours
In short: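 Acetone solutions of compound were coated onto inner walls of glass tubes (900 ppm giving 5 μg/cm^2) and dried; 5-10 adult C. felis were then held 48 h at room temperature. Efficacy = % fleas dead or moribund, judged by inability to escape a 45-50° C heating plate within 5 min.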

[10] = system: Rhipicephalus microplus larvae (strain Parkhurst, resistant against synthetic pyrethroids); assay: Rhipicephalus (Boophilus) microplus in-vitro contact test, larval cattle tick; conditions: 5 μg/cm^2 (=500 g/ha), after 48 hours, read-out: efficacy (larvae dead or moribund)
In short: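 After drying, 20-50 larvae were held per tube at 27° C., 85% relative humidity for 48 h, and efficacy was scored as % dead or moribund.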

[11] = system: adult brown dog ticks (Rhipicephalus sanguineus); assay: Rhipicephalus sanguineus in-vitro contact test with adult brown dog ticks; conditions: 5 μg/cm^2 (=500 g/ha), after 48 hours, read-out: efficacy (ticks dead or moribund)
In short: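 Acetone solution rolled onto tube walls, 2 h at 30 rpm; 900 ppm → 5 μg/cm^2. Solvent evaporated, 5-10 adults/tube, perforated lid, lying, RT. 48 h: heat plate 45-50° C ≤5 min; immotile/uncoordinated = dead/moribund. 100% = all dead/moribund.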

SMILES | stink bug mortality at 500 g/ha [2] | mortality at 20 ppm [8] | efficacy (fleas dead or moribund) [9] | pest or weed control at 5 µg/cm2 [10] | pest or weed control at 5 µg/cm2, 500 g/ha [11] | also measured
C[C@H](NC(=O)c1cc(Cl)cc(S(=O)(=O)C(F)(F)F)c1)c1ncnn1-c1ncc(C#N)s1 [I-60] | 100% |  |  |  |  | mortality at 500 g/ha [1]: 100%; pest or weed control at 32 µg/disc, 100 g/ha [3]: 100%; larval mortality at 20 g/ha ([4]; 20 g ai/ha): 100%; larval mortality at 100 g/ha ([4]; 100 g ai/ha): 100%; mortality at 100 g/ha [5]: 100%
C[C@H](NC(=O)c1cc(Cl)cc(S(=O)(=O)C(F)(F)F)c1)c1ncnn1-c1nccs1 [I-077, reference compound] | 0% |  |  |  |  | Emax at 20 g/ha ([4]; 20 g ai/ha): 33%; Emax at 100 g/ha ([4]; 100 g ai/ha): 67%
C[C@H](NC(=O)c1cc(Cl)cc(C(F)(F)F)c1)c1ncnn1-c1ncc(C(F)(F)F)s1 [I-085] |  |  |  |  |  | Emax at 4 ppm [6]: 20%; mortality at 20 ppm [7]: 40%
C[C@H](NC(=O)c1cc(OC(F)(F)F)cc(S(C)(=O)=O)c1)c1ncnn1-c1ncc(C#N)s1 [I-93] |  | 100% |  |  |  | 
C[C@H](NC(=O)c1cc(OC(F)F)cc(OC(F)F)c1)c1ncnn1-c1ncc(C#N)s1 [I-94] |  | 100% | 100% | 100% | 100% | 
C[C@H](NC(=O)c1cc(Cl)cc(OC(F)(F)F)c1)c1ncnn1-c1ncc(C#N)s1 [I-96] |  | 100% |  |  |  | 
C[C@H](NC(=O)c1cc(C(F)F)cc(C(F)F)c1)c1ncnn1-c1ncc(C#N)s1 [I-97] |  | 100% | 100% | 100% | 100% | 
C[C@H](NC(=O)c1cc(OC(F)(F)F)cc(C(F)F)c1)c1ncnn1-c1ncc(C#N)s1 [I-98] |  | 100% | 100% | 100% | 100% | 
CNC(=O)c1cnc(-n2ncnc2[C@H](C)NC(=O)c2cc(Cl)cc(S(=O)(=O)C(F)(F)F)c2)s1 [I-110] | 100% |  |  |  |  | mortality at 100 g/ha [1]: 90%; mortality at 500 g/ha [1]: 100%; pest or weed control at 32 µg/disc, 100 g/ha [3]: 100%; Emax at 20 g/ha ([4]; 20 g ai/ha): 67%; larval mortality at 100 g/ha ([4]; 100 g ai/ha): 100%; mortality at 100 g/ha [5]: 100%
